Reference: patent US9822105B2, “Diaminotriazine compounds as herbicides” (BASF SE, priority 2014, dated 2017)

Tests used:
ABUTH = assay: Greenhouse test, pre-emergence treatment; format: in vivo, Abutilon theophrasti
Description: (§1) The seeds of the test plants were sown separately for each species. For the pre-emergence treatment, the active ingredients, which had been suspended or emulsified in water, were applied directly after sowing by means of finely distributing nozzles. The containers were irrigated gently to promote germination and growth and subsequently covered with transparent plastic hoods until the plants had rooted. This cover caused uniform germination of the test plants, unless this had been impaired by the active ingredients. Depending on the species, the plants were kept at 10-25° C. or 20-35° C., respectively. The test period extended over 2 to 4 weeks. During this time, the plants were tended, and their response to the individual treatments was evaluated. Evaluation was carried out using a scale from 0 to 100. 100 means no emergence of the plants, or complete destruction of at least the aerial moieties, and 0 means no damage, or normal course of growth. […] The plants used in the greenhouse experiments were of the following species: [table]

ECHCG = assay: Greenhouse test, pre-emergence treatment; format: in vivo, Echinocloa crus-galli
Description: as §1

AMARE [1] = assay: Greenhouse test, pre-emergence treatment; format: in vivo, Amaranthus retroflexus; details: for pest or weed control at 250 g/ha / pest or weed control at 125 g/ha / pest or weed control at 500 g/ha: Amaranthus retroflexus; for pest or weed control at 250 g/ha: read-out: herbicidal activity, 250 g/ha; for pest or weed control at 125 g/ha: read-out: herbicidal activity, 125 g/ha; for pest or weed control at 500 g/ha: read-out: herbicidal activity, 500 g/ha
Description: as §1

SETFA = assay: Greenhouse test, pre-emergence treatment; format: in vivo, Setaria faberi
Description: as §1

ALOMY = assay: Greenhouse test, pre-emergence treatment; format: in vivo, Alopecurus myosuroides; details: 0.5 kg/ha
Description: as §1

AMARE [2] = assay: Greenhouse test, post-emergence treatment; format: in vivo, Amaranthus retroflexus; details: 500 g/ha
Description: The seeds of the test plants were sown separately for each species. For the post-emergence treatment, the test plants were first grown to a height of […], depending on the plant habit, and only then treated with the active ingredients which had been suspended or emulsified in water. For this purpose, the test plants were either sown directly and grown in the same containers, or they were first grown separately as seedlings and transplanted into the test containers a few days prior to treatment. Depending on the species, the plants were kept at 10-25° C. or 20-35° C., respectively. The test period extended over 2 to 4 weeks. During this time, the plants were tended, and their response to the individual treatments was evaluated. Evaluation was carried out using a scale from 0 to 100. 100 means no emergence of the plants, or complete destruction of at least the aerial moieties, and 0 means no damage, or normal course of growth. […] The plants used in the greenhouse experiments were of the following species: [table]

In the case of `CC1Oc2ccc(Cl)c(Nc3nc(N)nc(C(C)(C)F)n3)c2O1` (racemic) [Example 12], the herbicidal activity (ABUTH; 250 g/ha) is reported as “very good (a very good herbicidal activity is given at values of at least 85)”, the herbicidal activity (ECHCG; 250 g/ha) is reported as “very good (a very good herbicidal activity is given at values of at least 85)” and the herbicidal activity (AMARE [1]; 250 g/ha) is reported as “very good (a very good herbicidal activity is given at values of at least 85)”.
In the case of `CCC(C)c1nc(N)nc(Nc2c(F)ccc3c2OCO3)n1` (racemic) [Example 16], the herbicidal activity (ABUTH; 125 g/ha) is reported as “good (a good herbicidal activity is given at values of at least 70)” and the herbicidal activity (AMARE [1]; 125 g/ha) is reported as “very good (a very good herbicidal activity is given at values of at least 85)”.
With `CC1CCCN1c1nc(N)nc(Nc2c(F)ccc3c2OCO3)n1` (racemic) [Example 19] the herbicidal activity (AMARE [1]; 500 g/ha) was “very good (a very good herbicidal activity is given at values of at least 85)”.
In the case of `COC(C)c1nc(N)nc(Nc2c(F)ccc3c2OCO3)n1` (racemic) [Example 32], the herbicidal activity (ABUTH; 125 g/ha) is reported as “good (a good herbicidal activity is given at values of at least 70)” and the herbicidal activity (AMARE [1]; 125 g/ha) is reported as “good (a good herbicidal activity is given at values of at least 70)”.
`CCC(F)c1nc(N)nc(Nc2c(F)ccc3c2OCO3)n1` (racemic) [Example 33] was tested, and the herbicidal activity (AMARE [1]; 125 g/ha) was “very good (a very good herbicidal activity is given at values of at least 85)”.
In the case of `CC1Oc2ccc(F)c(Nc3nc(N)nc(C(C)(C)F)n3)c2O1` (single isomer, unassigned) [Example 7], the herbicidal activity (ABUTH; 250 g/ha) is reported as “very good (a very good herbicidal activity is given at values of at least 85)”, the herbicidal activity (AMARE [1]; 250 g/ha) is reported as “very good (a very good herbicidal activity is given at values of at least 85)” and the herbicidal activity (SETFA; 250 g/ha, SETFA) is reported as “very good (a very good herbicidal activity is given at values of at least 85)”.
`CC1Oc2ccc(F)c(Nc3nc(N)nc(C(C)(C)F)n3)c2O1` (single isomer, unassigned) [Example 8] was tested, and the herbicidal activity (ABUTH; 250 g/ha) was “very good (a very good herbicidal activity is given at values of at least 85)”, the herbicidal activity (AMARE [1]; 250 g/ha) was “very good (a very good herbicidal activity is given at values of at least 85)” and the herbicidal activity (SETFA; 250 g/ha, SETFA) was “very good (a very good herbicidal activity is given at values of at least 85)”.
In the case of `CC1Oc2ccc(F)c(Nc3nc(N)nc(C(C)(C)F)n3)c2O1` (single isomer, unassigned) [Example 35], the herbicidal activity (ECHCG; 250 g/ha) is reported as “very good (a very good herbicidal activity is given at values of at least 85)”.
With `CC(C)(F)c1nc(N)nc(Nc2c(Cl)ccc3c2OCO3)n1` [Example 2] the herbicidal activity (ALOMY) was “very good (a very good herbicidal activity is given at values of at least 85)”, the herbicidal activity (AMARE [1]; 0.5 kg/ha) was “very good (a very good herbicidal activity is given at values of at least 85)” and the herbicidal activity (SETFA; 0.5 kg/ha, SETFA) was “very good (a very good herbicidal activity is given at values of at least 85)”.
`CC(C)(F)c1nc(N)nc(Nc2c(Br)c(Br)cc3c2OCO3)n1` [Example 4] was tested, and the herbicidal activity (ABUTH; 125 g/ha) was “good (a good herbicidal activity is given at values of at least 70)”.
`Nc1nc(Nc2c(F)ccc3c2OCO3)nc(C2(Cl)CCC2)n1` [Example 5] was tested, and the herbicidal activity (ECHCG; 250 g/ha) was “very good (a very good herbicidal activity is given at values of at least 85)”, the pest or weed control at 250 g/ha (AMARE [1]) was no less than 85% and the herbicidal activity (SETFA; 250 g/ha, SETFA) was “very good (a very good herbicidal activity is given at values of at least 85)”.
With `Nc1nc(Nc2c(Br)ccc3c2OC(F)(F)O3)nc(C2(Cl)CCCC2)n1` [Example 9] the herbicidal activity (AMARE [2]) was “very good (a very good herbicidal activity is given at values of at least 85)”.
In the case of `CC1(C)Oc2ccc(Cl)c(Nc3nc(N)nc(C(C)(C)F)n3)c2O1` [Example 11], the herbicidal activity (ABUTH; 250 g/ha) is reported as “very good (a very good herbicidal activity is given at values of at least 85)”, the herbicidal activity (ECHCG; 250 g/ha) is reported as “very good (a very good herbicidal activity is given at values of at least 85)” and the herbicidal activity (AMARE [1]; 250 g/ha) is reported as “very good (a very good herbicidal activity is given at values of at least 85)”.
With `CC1(C)Oc2ccc(F)c(Nc3nc(N)nc(C(C)(C)F)n3)c2O1` [Example 14] the herbicidal activity (ABUTH; 250 g/ha) was “very good (a very good herbicidal activity is given at values of at least 85)”, the herbicidal activity (ECHCG; 250 g/ha) was “very good (a very good herbicidal activity is given at values of at least 85)” and the herbicidal activity (AMARE [1]; 250 g/ha) was “very good (a very good herbicidal activity is given at values of at least 85)”.
With `Nc1nc(Nc2c(F)ccc3c2OCO3)nc(C2(F)CCCC2)n1` [Example 15] the herbicidal activity (ABUTH; 250 g/ha) was “very good (a very good herbicidal activity is given at values of at least 85)”, the herbicidal activity (AMARE [1]; 250 g/ha) was “very good (a very good herbicidal activity is given at values of at least 85)” and the herbicidal activity (SETFA; 250 g/ha, SETFA) was “very good (a very good herbicidal activity is given at values of at least 85)”.
In the case of `CC(C)c1nc(N)nc(Nc2c(F)ccc3c2OCO3)n1` [Example 17], the herbicidal activity (ABUTH; 125 g/ha) is reported as “good (a good herbicidal activity is given at values of at least 70)” and the pest or weed control at 125 g/ha (AMARE [1]) is reported as no less than 85%.
Work on `Nc1nc(Nc2c(F)ccc3c2OCO3)nc(N2CCCC2)n1` [Example 20] yielded a pest or weed control at 500 g/ha (AMARE [1]) of no less than 85%.
For `COC1(c2nc(N)nc(Nc3c(F)ccc4c3OCO4)n2)CCCCC1` [Example 23], the herbicidal activity (ECHCG; 125 g/ha) was “good (a good herbicidal activity is given at values of at least 70)”, the pest or weed control at 125 g/ha (AMARE [1]) was no less than 85% and the herbicidal activity (SETFA; 125 g/ha, SETFA) was “good (a good herbicidal activity is given at values of at least 70)”.
For `CC(C)(C)Cc1nc(N)nc(Nc2c(F)ccc3c2OCO3)n1` [Example 24], the herbicidal activity (ABUTH; 125 g/ha) was “very good (a very good herbicidal activity is given at values of at least 85)”, the herbicidal activity (ECHCG; 125 g/ha) was “very good (a very good herbicidal activity is given at values of at least 85)” and the herbicidal activity (AMARE [1]; 125 g/ha) was “very good (a very good herbicidal activity is given at values of at least 85)”.
`CON(C)c1nc(N)nc(Nc2c(F)ccc3c2OCO3)n1` [Example 25] was tested, and the herbicidal activity (AMARE [1]; 500 g/ha) was “very good (a very good herbicidal activity is given at values of at least 85)”.
In the case of `CC(C)Cc1nc(N)nc(Nc2c(F)ccc3c2OCO3)n1` [Example 26], the herbicidal activity (ECHCG; 125 g/ha) is reported as “good (a good herbicidal activity is given at values of at least 70)”, the herbicidal activity (AMARE [1]; 125 g/ha) is reported as “very good (a very good herbicidal activity is given at values of at least 85)” and the herbicidal activity (SETFA; 125 g/ha, SETFA) is reported as “good (a good herbicidal activity is given at values of at least 70)”.
With `Nc1nc(Nc2c(F)ccc3c2OCO3)nc(C2CCCCC2)n1` [Example 27] the pest or weed control at 125 g/ha (AMARE [1]) was no less than 85% and the herbicidal activity (SETFA; 125 g/ha, SETFA) was “good (a good herbicidal activity is given at values of at least 70)”.
`Nc1nc(Nc2c(F)ccc3c2OCO3)nc(C2CCCC2)n1` [Example 28] was tested, and the herbicidal activity (ECHCG; 125 g/ha) was “good (a good herbicidal activity is given at values of at least 70)” and the pest or weed control at 125 g/ha (AMARE [1]) was no less than 85%.
With `CC(C)(C)c1nc(N)nc(Nc2c(F)ccc3c2OCO3)n1` [Example 29] the herbicidal activity (ABUTH; 125 g/ha) was “very good (a very good herbicidal activity is given at values of at least 85)”, the herbicidal activity (ECHCG; 125 g/ha) was “very good (a very good herbicidal activity is given at values of at least 85)” and the pest or weed control at 125 g/ha (AMARE [1]) was no less than 85%.
For `CC(C)(F)c1nc(N)nc(Nc2c(Cl)c(Cl)cc3c2OCO3)n1` [Example 31], the herbicidal activity (ECHCG; 125 g/ha) was “good (a good herbicidal activity is given at values of at least 70)”, the herbicidal activity (AMARE [1]; 125 g/ha) was “very good (a very good herbicidal activity is given at values of at least 85)” and the herbicidal activity (SETFA; 125 g/ha, STEFTA) was “very good (a very good herbicidal activity is given at values of at least 85)”.
`Cn1c(=O)oc2c(Nc3nc(N)nc(C(C)(C)F)n3)c(F)ccc21` [Example 38] was tested, and the herbicidal activity (AMARE [1]; 500 g/ha) was “very good (a very good herbicidal activity is given at values of at least 85)”.
In the case of `CC(C)(F)c1nc(N)nc(Nc2c(F)ccc3ncoc23)n1` [Example 39], the herbicidal activity (ABUTH; 250 g/ha) is reported as “very good (a very good herbicidal activity is given at values of at least 85)” and the pest or weed control at 250 g/ha (AMARE [1]) is reported as no less than 85%.
For `CC(C)(F)c1nc(N)nc(Nc2c(F)ccc3c2CCC3)n1` [Example 41], the pest or weed control at 500 g/ha (AMARE [1]) was no less than 85%.
For `CC(C)(F)c1nc(N)nc(Nc2c(Cl)ccc3c2OCCO3)n1` [Example 42], the pest or weed control at 125 g/ha (AMARE [1]) was no less than 85%.
`CC(C)(F)c1nc(N)nc(Nc2c(F)ccc3c2OCCO3)n1` [Example 43] gave a pest or weed control at 500 g/ha (AMARE [1]) of no less than 85%.
In the case of `CC(C)(F)c1nc(N)nc(Nc2c(Cl)ccc3c2OC=CO3)n1` [Example 44], the herbicidal activity (ECHCG; 500 g/ha) is reported as “very good (a very good herbicidal activity is given at values of at least 85)” and the pest or weed control at 500 g/ha (AMARE [1]) is reported as no less than 85%.
For `CC(C)(F)c1nc(N)nc(Nc2c(F)ccc3c2OC=CO3)n1` [Example 45], the herbicidal activity (ABUTH; 125 g/ha) was “very good (a very good herbicidal activity is given at values of at least 85)” and the pest or weed control at 125 g/ha (AMARE [1]) was no less than 85%.
`CC(C)(F)c1nc(N)nc(Nc2c(Cl)ccc3c2CCC3)n1` [Example 47] was tested, and the herbicidal activity (ABUTH; 250 g/ha) was “good (a good herbicidal activity is given at values of at least 70)” and the herbicidal activity (ECHCG; 250 g/ha) was “good (a good herbicidal activity is given at values of at least 70)”.
